Assay results taken from patent EP2589383A1 (Max-Planck-Gesellschaft zur Förderung der Wissenschaften …, priority 2011, dated 2013).

Biological target: T1, FLAG-mTOR (Homo sapiens, UniProt P42345)
T1 construct: expressed in transfected cells; host or cells: HEK-293
Experiment: Co-immunoprecipitation of FLAG-mTOR and endogenous FKBPs in HEK-293 cells
Assay type: cell-based
Conditions: overexpressed mTOR, 25 nM, 30 minutes prior to lysis
Protocol: Next mammalian cells were analyzed for a rapamycin-mediated interaction of mTOR and FKBPs. Co-Immunoprecipitation experiments were performed. In detail, the mammalian expression vector pcDNA-3, containing a FLAG-tagged mTOR cDNA sequence, was introduced into HEK-293 cells by standard Lipofectamine transfection. After 48 h, cells were washed twice with TBS and lysed in lysis buffer (40 mM Hepes, pH 7.5; 120 mM NaCl; 1 mM EDTA; 10 mM pyrophosphate; 10 mM glycerophosphate; 0.5 mM orthovanadate; 50 mM NaF; 0.3% (w/v) CHAPS / 1% (v/v) Triton-100; 1% (v/v) protease inhibitor mix) by shaking at 1000 rpm at 4°C for 20 minutes. After 20 minutes of centrifugation at 14.000 rpm and 4°C, the supernatant was collected, and total protein was determined by Bradford Assay. […] Beads were pelleted and washed 4 times with lysis buffer. Finally, beads were directly boiled after addition of an equal amount of SDS sample buffer for 5 minutes. Extracts were subjected to SDS-PAGE and immunoblotting.

For `C=CC[C@@H]1/C=C(\C)C[C@H](C)C[C@H](OC)[C@H]2O[C@@](O)(C(=O)C(=O)N3CCCC[C@H]3C(=O)O[C@H](/C(C)=C/[C@@H]3CC[C@@H](O)[C@H](OC)C3)[C@H](C)[C@@H](O)CC1=O)[C@H](C)C[C@@H]2OC` [Tacrolimus], the “interaction of mTOR with endogenous FKBP12, FKBP51 and FKBP52 (co-precipitation)” value was “No interaction was observed”.
